From PubChem BioAssay AID1963832 (Molecular Pharmacology Branch, DTP, NCI, 2024)

System: 885724-159-R-J1-PDC complex spheroid viability
Assay: Anticancer human tumor 885724-159-R-J1-PDC patient-derived pancreatic adenocarcinoma cell line growth inhibition [POLQ]
Conditions: for IC50: curve of first compound; for viability, T/C: stronger effect = lower value
In short: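 Growth inhibition in 3D: complex spheroids (tumor PDC, HUVEC, MSC) treated with POLQ inhibitor combinations; where Cmax unknown, highest tested concentration 10 microM, except SN-38 at 1 microM.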
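Further: spheroids exposed to compounds for 7 days.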

Q: How did the IC50 (second compound 0.0316 µM) turn out when `CC(=O)O[C@H]1C(=O)[C@@]2(C)[C@H]([C@H](OC(=O)c3ccccc3)[C@]3(O)C[C@H](OC(=O)[C@H](O)[C@@H](NC(=O)c4ccccc4)c4ccccc4)C(C)=C1C3(C)C)[C@]1(OC(C)=O)CO[C@@H]1C[C@@H]2O` + COC1C(OC(N)=O)C(O)C(Oc2ccc3c(O)c(NC(=O)c4ccc(O)c(CC=C(C)C)c4)c(=O)oc3c2C)OC1(C)C was run?
A: > 3000 nM

Q: What about the IC50 (second compound 0.1 µM) of the same compound?
A: > 3000 nM

Q: And the IC50 (second compound 0.316 µM)?
A: > 3000 nM

Q: And the IC50 (second compound 1 µM)?
A: > 3000 nM

Q: What about the IC50 (second compound 3.16 µM) of the same compound?
A: > 3000 nM

Q: And the IC50 (second compound 10 µM)?
A: > 3000 nM

Q: What about the viability, T/C (second compound 0.0316 µM, first compound 0.00949 µM) of the same compound?
A: 57.8%

Q: And the viability, T/C (second compound 0.0316 µM, first compound 0.03 µM)?
A: 60.2%

Q: What about the viability, T/C (second compound 0.0316 µM, first compound 0.0949 µM) of the same compound?
A: 55.6%

Q: And the viability, T/C (second compound 0.0316 µM, first compound 0.3 µM)?
A: 59%

Q: What about the viability, T/C (second compound 0.0316 µM, first compound 0.949 µM) of the same compound?
A: 59.9%

Q: What about the viability, T/C (second compound 0.0316 µM, first compound 3 µM) of the same compound?
A: 61.6%

Q: And the viability, T/C (second compound 0.1 µM, first compound 0.00949 µM)?
A: 66.1%

Q: What about the viability, T/C (second compound 0.1 µM, first compound 0.03 µM) of the same compound?
A: 59.6%

Q: And the viability, T/C (second compound 0.1 µM, first compound 0.0949 µM)?
A: 56.8%

Q: And the viability, T/C (second compound 0.1 µM, first compound 0.3 µM)?
A: 66.1%

Q: And the viability, T/C (second compound 0.1 µM, first compound 0.949 µM)?
A: 64.5%

Q: And the viability, T/C (second compound 0.1 µM, first compound 3 µM)?
A: 56.8%

Q: And the viability, T/C (second compound 0.316 µM, first compound 0.00949 µM)?
A: 64%

Q: What about the viability, T/C (second compound 0.316 µM, first compound 0.03 µM) of the same compound?
A: 54.9%

Q: What about the viability, T/C (second compound 0.316 µM, first compound 0.0949 µM) of the same compound?
A: 55.7%

Q: And the viability, T/C (second compound 0.316 µM, first compound 0.3 µM)?
A: 56.6%

Q: What about the viability, T/C (second compound 0.316 µM, first compound 0.949 µM) of the same compound?
A: 61.1%

Q: What about the viability, T/C (second compound 0.316 µM, first compound 3 µM) of the same compound?
A: 68.4%

Q: What about the viability, T/C (second compound 1 µM, first compound 0.00949 µM) of the same compound?
A: 65.4%

Q: And the viability, T/C (second compound 1 µM, first compound 0.03 µM)?
A: 60%

Q: And the viability, T/C (second compound 1 µM, first compound 0.0949 µM)?
A: 57.9%

Q: And the viability, T/C (second compound 1 µM, first compound 0.3 µM)?
A: 62.3%

Q: What about the viability, T/C (second compound 1 µM, first compound 0.949 µM) of the same compound?
A: 53.1%

Q: And the viability, T/C (second compound 1 µM, first compound 3 µM)?
A: 56%

Q: And the viability, T/C (second compound 3.16 µM, first compound 0.00949 µM)?
A: 64.3%

Q: And the viability, T/C (second compound 3.16 µM, first compound 0.03 µM)?
A: 57.6%

Q: What about the viability, T/C (second compound 3.16 µM, first compound 0.0949 µM) of the same compound?
A: 52.9%

Q: And the viability, T/C (second compound 3.16 µM, first compound 0.3 µM)?
A: 56.3%

Q: And the viability, T/C (second compound 3.16 µM, first compound 0.949 µM)?
A: 60.3%

Q: What about the viability, T/C (second compound 3.16 µM, first compound 3 µM) of the same compound?
A: 66.5%

Q: And the viability, T/C (second compound 10 µM, first compound 0.00949 µM)?
A: 60.6%

Q: And the viability, T/C (second compound 10 µM, first compound 0.03 µM)?
A: 51.5%

Q: And the viability, T/C (second compound 10 µM, first compound 0.0949 µM)?
A: 59.3%

Q: What about the viability, T/C (second compound 10 µM, first compound 0.3 µM) of the same compound?
A: 56.5%

Q: What about the viability, T/C (second compound 10 µM, first compound 0.949 µM) of the same compound?
A: 67.2%

Q: What about the viability, T/C (second compound 10 µM, first compound 3 µM) of the same compound?
A: 67.4%

Q: For `CC[C@@]1(O)C(=O)OCc2c1cc1n(c2=O)Cc2cc3c(CN(C)C)c(O)ccc3nc2-1` + COC1C(OC(N)=O)C(O)C(Oc2ccc3c(O)c(NC(=O)c4ccc(O)c(CC=C(C)C)c4)c(=O)oc3c2C)OC1(C)C, which IC50 (second compound 0.0316 µM) is on record?
A: > 100 nM

Q: What about the IC50 (second compound 0.1 µM) of the same compound?
A: 94.7 nM

Q: And the IC50 (second compound 0.316 µM)?
A: > 100 nM

Q: And the IC50 (second compound 1 µM)?
A: > 100 nM

Q: And the IC50 (second compound 3.16 µM)?
A: > 100 nM

Q: What about the IC50 (second compound 10 µM) of the same compound?
A: > 100 nM

Q: And the viability, T/C (second compound 0.0316 µM, first compound 0.000316 µM)?
A: 102%

Q: What about the viability, T/C (second compound 0.0316 µM, first compound 0.001 µM) of the same compound?
A: 101%

Q: What about the viability, T/C (second compound 0.0316 µM, first compound 0.00316 µM) of the same compound?
A: 84%

Q: What about the viability, T/C (second compound 0.0316 µM, first compound 0.01 µM) of the same compound?
A: 98.1%

Q: What about the viability, T/C (second compound 0.0316 µM, first compound 0.0316 µM) of the same compound?
A: 76.2%

Q: What about the viability, T/C (second compound 0.0316 µM, first compound 0.1 µM) of the same compound?
A: 51.3%

Q: What about the viability, T/C (second compound 0.1 µM, first compound 0.000316 µM) of the same compound?
A: 111%

Q: What about the viability, T/C (second compound 0.1 µM, first compound 0.001 µM) of the same compound?
A: 117%

Q: What about the viability, T/C (second compound 0.1 µM, first compound 0.00316 µM) of the same compound?
A: 97.6%

Q: And the viability, T/C (second compound 0.1 µM, first compound 0.01 µM)?
A: 97%

Q: And the viability, T/C (second compound 0.1 µM, first compound 0.0316 µM)?
A: 76.7%

Q: What about the viability, T/C (second compound 0.1 µM, first compound 0.1 µM) of the same compound?
A: 48.3%

Q: And the viability, T/C (second compound 0.316 µM, first compound 0.000316 µM)?
A: 94.4%

Q: What about the viability, T/C (second compound 0.316 µM, first compound 0.001 µM) of the same compound?
A: 101%

Q: And the viability, T/C (second compound 0.316 µM, first compound 0.00316 µM)?
A: 94.4%

Q: What about the viability, T/C (second compound 0.316 µM, first compound 0.01 µM) of the same compound?
A: 87.2%

Q: And the viability, T/C (second compound 0.316 µM, first compound 0.0316 µM)?
A: 73.2%

Q: And the viability, T/C (second compound 0.316 µM, first compound 0.1 µM)?
A: 54.4%

Q: What about the viability, T/C (second compound 1 µM, first compound 0.000316 µM) of the same compound?
A: 104%

Q: What about the viability, T/C (second compound 1 µM, first compound 0.001 µM) of the same compound?
A: 94.6%

Q: What about the viability, T/C (second compound 1 µM, first compound 0.00316 µM) of the same compound?
A: 93.7%

Q: What about the viability, T/C (second compound 1 µM, first compound 0.01 µM) of the same compound?
A: 95.3%

Q: And the viability, T/C (second compound 1 µM, first compound 0.0316 µM)?
A: 76.2%

Q: What about the viability, T/C (second compound 1 µM, first compound 0.1 µM) of the same compound?
A: 56.1%

Q: And the viability, T/C (second compound 3.16 µM, first compound 0.000316 µM)?
A: 98.5%

Q: What about the viability, T/C (second compound 3.16 µM, first compound 0.001 µM) of the same compound?
A: 104%

Q: And the viability, T/C (second compound 3.16 µM, first compound 0.00316 µM)?
A: 97%

Q: What about the viability, T/C (second compound 3.16 µM, first compound 0.01 µM) of the same compound?
A: 84.3%

Q: What about the viability, T/C (second compound 3.16 µM, first compound 0.0316 µM) of the same compound?
A: 77.3%

Q: What about the viability, T/C (second compound 3.16 µM, first compound 0.1 µM) of the same compound?
A: 55.1%

Q: What about the viability, T/C (second compound 10 µM, first compound 0.000316 µM) of the same compound?
A: 109%

Q: And the viability, T/C (second compound 10 µM, first compound 0.001 µM)?
A: 94.5%

Q: What about the viability, T/C (second compound 10 µM, first compound 0.00316 µM) of the same compound?
A: 94.4%

Q: And the viability, T/C (second compound 10 µM, first compound 0.01 µM)?
A: 79.2%

Q: And the viability, T/C (second compound 10 µM, first compound 0.0316 µM)?
A: 66.1%

Q: And the viability, T/C (second compound 10 µM, first compound 0.1 µM)?
A: 50.9%
